Laboratory results reported in patent EP4737445A1, “NOVEL SATURATED HETEROCYCLE-SUBSTITUTED HETEROARYL-CARBONOHYDRAZONOYL DICYANIDE COMPOUND AND USE THEREOF” (Korea Institute of Science and Technology, priority 2023, dated 2025).

Tests used:
[1] = Liver microsomal stability, rat; assay type: in vitro ADME; details: 1 µM compound; 0.5 mg/mL microsomes; NADPH; 30 minutes at 37°C
Experimental: (§1) Liver microsomal stability by the compounds prepared according to Examples 1 to 46 was confirmed. Specifically, four types of liver microsomes (human, dog, rat, and mouse each at 0.5 mg/mL), 0.1 M phosphate buffer solution (pH 7.4), and the compounds at 1 µM concentration were added and pre-incubated at 37°C for 5 minutes, and then NADPH generation system solution was added and incubated at 37°C for an additional 30 minutes. Thereafter, an acetonitrile solution containing an internal standard (chloropropamide) was added to terminate the reaction, and after centrifugation for 5 minutes (14,000 rpm, 4°C), the supernatant was injected into an LC-MS/MS system to analyze the substrate drug, thereby evaluating the metabolic stability of 8 compounds.
(§2) The amount of remaining substrate through the reaction was analyzed using a Shimadzu Nexera XR system and TSQ vantage (Thermo). A Kinetex XB-C18 (2.1 × 100 mm, 2.6 µm, particle size; Phenomenex, USA) was used as the HPLC column, and (A) distilled water containing 0.1% formic acid and (B) acetonitrile containing 0.1% formic acid were used as mobile phases. Analyst software (version 1.6.3) and Xcalibur (version 1.6.1) were used for data analysis. The calculated results are shown in Table 5 below: Liver microsomal stability data of novel compounds from […] (human, rat, and mouse).

[2] = Liver microsomal stability, mouse; assay type: in vitro ADME; details: 1 µM compound; 0.5 mg/mL microsomes; NADPH; 30 minutes at 37°C
Experimental: as §1, §2

Tau-BiFC cells = test: Cell viability (stained nuclei count) in Tau-BiFC cells; assay type: cell-based; details: @10 µM; Tau-BiFC cell line; Forskolin-only group = 100%
Experimental: (§3) To screen for new tau aggregation inhibitors, a Tau-BiFC cell model that facilitates observation of tau oligomer formation in living cells was used. Tau-BiFC cells were dispensed into a 384-well plate, and the next day, the compounds prepared according to Examples 1 to 46 were treated at concentrations of 1, 3, and 10 µM, respectively, together with Forskolin (treatment concentration 30 µM), which is a compound that induces tau aggregation by activating the tau phosphorylation enzyme PKA. After 48 hours, nuclei within cells were stained using Hoechst (treatment concentration 2 µg/mL), and BiFC fluorescence intensity was automatically quantified using Operetta (Perkin Elmer) to count the stained nuclei in each well from the entire plate. The group treated only with Forskolin, which induces tau aggregation, was set as the reference point with 100% tau aggregation state, and the effect was confirmed by the formula "BiFC fluorescence intensity by the compounds synthesized according to the Examples of the disclosure/(fluorescence intensity of the control group treated only with Forskolin that induces tau aggregation - fluorescence intensity of the untreated control group) × 100". In addition, the degree of cytotoxicity induced by the newly synthesized compounds was also calculated using the formula "(number of stained nuclei in the compound-treated group/number of stained nuclei in the Forskolin-treated group) × 100", with the group treated only with Forskolin as the reference point at 100% viability. From the treatment results, substances that inhibit intracellular tau aggregation were identified through screening from a series of candidates based on the criteria of 70% or more tau aggregation inhibition and 100% cell viability at a compound treatment concentration of 10 µM.
(§4) To confirm the tau aggregation inhibitory effect according to the concentration of the compounds screened in Experimental Example 1, the screened compounds were treated to Tau-BiFC cells at concentrations of 0.03, 0.1, 0.3, 1, 3, 10, and 30 µM, respectively, together with Forskolin (treatment concentration 30 µM), which is a tau aggregation-inducing substance. After 48 hours, cell images were examined to analyze the tau aggregation reaction and degree of cytotoxicity. The IC50 and toxicity of the compounds were analyzed by nonlinear regression analysis using Prism software (GraphPad). The calculated results for representative compounds are shown in Table 3 below: Tau aggregation inhibitory effect and cell viability of novel compounds.

TDP-43 BiFC cells = test: Cell viability (stained nuclei count) in TDP-43-BiFC cells; assay type: cell-based; details: Forskolin-only group = 100%
Experimental: (§5) To screen for new TDP-43 aggregation inhibitors, a TDP-43-BiFC cell model that facilitates observation of TDP-43 aggregate formation in living cells was used. Specifically, TDP-43-BiFC cells were dispensed into a 384-well plate, and the next day, the compounds prepared according to Examples 1 to 46 were treated at concentrations of 3 and 10 µM, respectively, together with Forskolin (treatment concentration 30 µM), which is a compound that induces TDP-43 aggregation by activating the phosphorylation enzyme PKA. After 48 hours, nuclei within cells were stained using Hoechst (treatment concentration 1 µg/mL), and BiFC fluorescence intensity was automatically quantified using Operetta (PerkinElmer) to count the stained nuclei in each well from the entire plate. The group treated only with Forskolin, which induces TDP-43 aggregation, was set as the reference point with 100% TDP-43 aggregation state, and the effect was confirmed by the formula "(BiFC fluorescence intensity by the compounds synthesized according to the Examples of the disclosure - fluorescence intensity of the untreated control group)/(fluorescence intensity of the control group treated only with Forskolin that induces TDP-43 aggregation - fluorescence intensity of the untreated control group) × 100". In addition, the degree of cytotoxicity induced by the newly synthesized compounds was also calculated using the formula "(number of stained nuclei in the compound-treated group/number of stained nuclei in the Forskolin-treated group) × 100", with the group treated only with Forskolin as the reference point at 100% viability. From the treatment results, substances that inhibit intracellular TDP-43 aggregation were identified through screening from a series of candidates based on the criteria of 80% or more TDP-43 aggregation inhibition and 60% cell viability at a compound treatment concentration of 3 µM.
(§6) Furthermore, to confirm the TDP-43 aggregation inhibitory effect according to the concentration of the compounds screened in Experimental Example 3, the screened compounds were treated to […] at concentrations of 0.003, 0.01, 0.03, 0.1, 0.3, 1, 3, and 10 µM, respectively, together with Forskolin (treatment concentration 30 µM), which is a TDP-43 aggregation-inducing substance. After 48 hours, cell images were examined to analyze the TDP-43 aggregation reaction and degree of cytotoxicity. The IC50 and toxicity of the compounds were analyzed by nonlinear regression analysis using Prism software (GraphPad). The calculated results for representative compounds are shown in Table 4 below: TDP-43 protein aggregation inhibitory effect and cell viability of novel compounds.

[3] = Liver microsomal stability, human; assay type: in vitro ADME; details: 1 µM compound; 0.5 mg/mL microsomes; NADPH; 30 minutes at 37°C
Experimental: as §1, §2

Tau = target: T1, Tau (Homo sapiens, UniProt P10636); test: Tau aggregation inhibition in Tau-BiFC cell model (Forskolin-induced); assay type: cell-based
T1 construct: BiFC fluorescent-protein fragments (two complementary halves on two tau copies); expressed in transfected cells
Experimental: as §3, §4

TDP-43 protein = target: T2, TDP-43 protein (Homo sapiens, UniProt Q13148); test: TDP-43 aggregation inhibition in TDP-43-BiFC cell model (Forskolin-induced); assay type: cell-based; details: read-out: TDP-43 protein aggregation inhibitory effect: Aggregation inhibitory effect (%) (@3 uM)
T2 construct: BiFC fluorescent-protein fragments (two complementary halves); expressed in transfected cells
Experimental: as §5, §6

CYP3A4 = target: T3, CYP3A4 (Homo sapiens, UniProt P08684); test: CYP isoenzyme activity inhibition in human liver microsomes, CYP3A4; assay type: in vitro ADME; details: 10 µM compound; human liver microsomes 0.25 mg/mL; relative to control without compound
T3 construct: human liver microsomes (0.25 mg/mL); from tissue; host or cells: human liver microsomes
Experimental: (§7) The CYP isoenzyme activity inhibitory effect by the compounds prepared according to Examples 1 to 46 was confirmed. Specifically, human liver microsomes (0.25 mg/mL), 0.1 M phosphate buffer solution (pH 7.4), a substrate drug cocktail of five drug metabolizing enzymes (Phenacetin 50 µM, Diclofenac 10 µM, S-mephenytoin 100 µM, Dextromethorphan 5 µM, and Midazolam 2.5 µM), and the compounds were added at concentrations of 0 or 10 µM, respectively, and pre-incubated at 37°C for 5 minutes, and then NADPH generation system solution was added and incubated at 37°C for an additional 15 minutes. Thereafter, an acetonitrile solution containing an internal standard (Terfenadine) was added to terminate the reaction, and after centrifugation for 5 minutes (14,000 rpm, 4°C), the supernatant was injected into an LC-MS/MS system to simultaneously analyze the metabolites of the substrate drugs, thereby evaluating the drug metabolizing enzyme inhibitory activity.
(§8) The metabolites of each CYP isoenzyme marker drug generated through the reaction were analyzed using a Shimadzu Nexera XR system and TSQ vantage (Thermo). A Kinetex C18 (2.1 × 100 mm, 2.6 µm, particle size; Phenomenex, USA) was used as the HPLC column, and (A) distilled water containing 0.1% formic acid and (B) acetonitrile containing 0.1% formic acid were used as mobile phases, and a gradient program as shown in Table 6 below was applied.
(§9) The generated metabolites were quantified using MRM (Multiple Reaction Monitoring) quantitative mode, and Xcalibur (version 1.6.1) was used for data analysis. To show the CYP isoenzyme activity inhibitory effect of the novel compounds prepared according to the Examples of the disclosure, the % activity of CYP isoenzymes relative to the control group without compound addition is shown in Table 6 below. Additionally, to confirm the difference in effect according to substituents, Comparative Compounds 1 and 5, which are two compounds that share a similar parent nucleus structure with Compounds 1 to 46 of the disclosure while Cy is substituted with aromatic heteroaryl instead of saturated heterocyclyl, were selected as comparative compounds and their activities are shown together.

CYP2D6 = target: T4, CYP2D6 (Homo sapiens, UniProt P10635); test: CYP isoenzyme activity inhibition in human liver microsomes, CYP2D6; assay type: in vitro ADME; details: 10 µM compound; human liver microsomes 0.25 mg/mL; relative to control without compound
T4 construct: human liver microsomes (0.25 mg/mL); from tissue; host or cells: human liver microsomes
Experimental: as §7, §8, §9

CYP1A2 = target: T5, CYP1A2 (Homo sapiens, UniProt P05177); test: CYP isoenzyme activity inhibition in human liver microsomes, CYP1A2; assay type: in vitro ADME; details: 10 µM compound; human liver microsomes 0.25 mg/mL; relative to control without compound
T5 construct: human liver microsomes (0.25 mg/mL); from tissue; host or cells: human liver microsomes
T5 sequence (P05177 1-516): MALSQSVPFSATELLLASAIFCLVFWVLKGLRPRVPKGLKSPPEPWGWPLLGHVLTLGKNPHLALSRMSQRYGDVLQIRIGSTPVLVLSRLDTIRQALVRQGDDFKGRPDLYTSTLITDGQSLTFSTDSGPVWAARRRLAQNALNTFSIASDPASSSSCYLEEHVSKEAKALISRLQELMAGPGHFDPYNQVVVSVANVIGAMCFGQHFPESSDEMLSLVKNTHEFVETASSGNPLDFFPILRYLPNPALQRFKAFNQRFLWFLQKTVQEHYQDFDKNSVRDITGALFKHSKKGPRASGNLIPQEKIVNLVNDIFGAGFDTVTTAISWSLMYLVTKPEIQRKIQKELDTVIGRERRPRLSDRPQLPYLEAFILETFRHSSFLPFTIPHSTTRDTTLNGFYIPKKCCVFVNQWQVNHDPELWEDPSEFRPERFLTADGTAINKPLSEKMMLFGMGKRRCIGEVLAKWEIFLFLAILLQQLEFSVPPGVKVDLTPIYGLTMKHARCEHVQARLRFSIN
Experimental: as §7, §8, §9

CYP2C19 = target: T6, CYP2C19 (Homo sapiens, UniProt P33261); test: CYP isoenzyme activity inhibition in human liver microsomes, CYP2C19; assay type: in vitro ADME; details: 10 µM compound; human liver microsomes 0.25 mg/mL; relative to control without compound
T6 construct: human liver microsomes (0.25 mg/mL); from tissue; host or cells: human liver microsomes
Experimental: as §7, §8, §9

CYP2C9 = target: T7, CYP2C9 (Homo sapiens, UniProt P11712); test: CYP isoenzyme activity inhibition in human liver microsomes, CYP2C9; assay type: in vitro ADME; details: 10 µM compound; human liver microsomes 0.25 mg/mL; relative to control without compound
T7 construct: human liver microsomes (0.25 mg/mL); from tissue; host or cells: human liver microsomes
Experimental: as §7, §8, §9

T1 sequence (P10636 1-441 isoform P10636-8): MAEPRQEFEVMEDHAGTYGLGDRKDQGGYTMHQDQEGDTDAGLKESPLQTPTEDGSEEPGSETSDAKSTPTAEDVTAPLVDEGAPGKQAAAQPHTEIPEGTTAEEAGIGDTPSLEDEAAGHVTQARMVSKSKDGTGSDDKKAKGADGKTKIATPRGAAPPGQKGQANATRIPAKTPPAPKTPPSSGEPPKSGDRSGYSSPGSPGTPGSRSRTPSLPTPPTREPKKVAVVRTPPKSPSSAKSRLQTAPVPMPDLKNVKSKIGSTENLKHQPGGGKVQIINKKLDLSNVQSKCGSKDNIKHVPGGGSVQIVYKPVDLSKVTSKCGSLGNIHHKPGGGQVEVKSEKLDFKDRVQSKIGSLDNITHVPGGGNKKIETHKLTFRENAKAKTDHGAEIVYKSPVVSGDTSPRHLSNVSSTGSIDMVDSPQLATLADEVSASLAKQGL
T7 sequence (P11712 whole entry): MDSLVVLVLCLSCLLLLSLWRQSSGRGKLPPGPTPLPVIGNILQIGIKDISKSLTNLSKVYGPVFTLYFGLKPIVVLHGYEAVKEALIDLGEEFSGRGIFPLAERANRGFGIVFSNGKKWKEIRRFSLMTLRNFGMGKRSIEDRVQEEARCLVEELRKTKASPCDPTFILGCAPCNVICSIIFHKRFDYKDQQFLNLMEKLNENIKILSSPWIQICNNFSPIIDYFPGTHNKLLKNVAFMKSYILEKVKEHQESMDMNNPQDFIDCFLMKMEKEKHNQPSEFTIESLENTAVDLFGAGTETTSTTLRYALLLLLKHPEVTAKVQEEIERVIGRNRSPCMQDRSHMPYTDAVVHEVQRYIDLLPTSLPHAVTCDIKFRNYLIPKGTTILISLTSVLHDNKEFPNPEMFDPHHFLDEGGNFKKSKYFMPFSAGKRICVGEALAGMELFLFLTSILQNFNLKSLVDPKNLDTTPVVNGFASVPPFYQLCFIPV
T2 sequence (Q13148 whole entry, the tested form may be a part): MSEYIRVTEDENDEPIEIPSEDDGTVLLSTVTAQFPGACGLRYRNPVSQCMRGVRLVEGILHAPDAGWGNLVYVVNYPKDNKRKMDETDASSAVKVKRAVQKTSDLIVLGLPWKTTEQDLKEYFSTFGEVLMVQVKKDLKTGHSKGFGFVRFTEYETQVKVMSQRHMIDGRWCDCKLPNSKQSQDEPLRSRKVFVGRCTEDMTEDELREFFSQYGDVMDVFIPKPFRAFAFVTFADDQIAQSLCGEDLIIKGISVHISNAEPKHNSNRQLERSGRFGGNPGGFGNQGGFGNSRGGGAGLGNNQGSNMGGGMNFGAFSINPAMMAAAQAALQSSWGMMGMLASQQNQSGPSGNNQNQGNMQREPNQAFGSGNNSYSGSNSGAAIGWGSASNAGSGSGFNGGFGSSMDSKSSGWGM
T6 sequence (P33261 whole entry): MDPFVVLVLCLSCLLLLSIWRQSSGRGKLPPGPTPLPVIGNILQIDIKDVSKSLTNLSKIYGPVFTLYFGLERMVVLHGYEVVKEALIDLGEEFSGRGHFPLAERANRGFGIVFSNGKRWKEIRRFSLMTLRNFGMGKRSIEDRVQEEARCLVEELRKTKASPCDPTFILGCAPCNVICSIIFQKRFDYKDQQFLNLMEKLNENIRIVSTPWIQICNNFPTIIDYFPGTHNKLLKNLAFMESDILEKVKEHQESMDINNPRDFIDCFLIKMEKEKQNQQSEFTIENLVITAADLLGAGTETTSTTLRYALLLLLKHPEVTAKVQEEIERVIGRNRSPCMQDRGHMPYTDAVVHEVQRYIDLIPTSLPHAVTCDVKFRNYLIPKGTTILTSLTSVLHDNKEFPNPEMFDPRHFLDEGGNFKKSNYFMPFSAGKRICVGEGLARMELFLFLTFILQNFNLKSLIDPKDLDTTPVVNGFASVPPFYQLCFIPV
T4 sequence (P10635 whole entry): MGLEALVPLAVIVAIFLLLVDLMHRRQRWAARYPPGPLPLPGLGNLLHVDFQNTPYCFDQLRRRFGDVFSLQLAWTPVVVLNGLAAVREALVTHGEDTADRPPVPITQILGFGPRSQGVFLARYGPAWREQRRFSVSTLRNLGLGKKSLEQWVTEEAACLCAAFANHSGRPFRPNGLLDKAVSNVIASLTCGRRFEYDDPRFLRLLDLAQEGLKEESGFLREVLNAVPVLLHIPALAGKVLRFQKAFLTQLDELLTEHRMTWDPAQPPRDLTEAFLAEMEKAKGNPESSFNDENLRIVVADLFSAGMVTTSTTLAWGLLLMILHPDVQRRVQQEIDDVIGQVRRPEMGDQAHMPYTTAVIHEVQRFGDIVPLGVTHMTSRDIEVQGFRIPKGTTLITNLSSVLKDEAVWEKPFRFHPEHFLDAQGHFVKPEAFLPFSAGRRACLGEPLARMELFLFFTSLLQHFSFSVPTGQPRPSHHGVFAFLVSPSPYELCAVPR
T3 sequence (P08684 whole entry): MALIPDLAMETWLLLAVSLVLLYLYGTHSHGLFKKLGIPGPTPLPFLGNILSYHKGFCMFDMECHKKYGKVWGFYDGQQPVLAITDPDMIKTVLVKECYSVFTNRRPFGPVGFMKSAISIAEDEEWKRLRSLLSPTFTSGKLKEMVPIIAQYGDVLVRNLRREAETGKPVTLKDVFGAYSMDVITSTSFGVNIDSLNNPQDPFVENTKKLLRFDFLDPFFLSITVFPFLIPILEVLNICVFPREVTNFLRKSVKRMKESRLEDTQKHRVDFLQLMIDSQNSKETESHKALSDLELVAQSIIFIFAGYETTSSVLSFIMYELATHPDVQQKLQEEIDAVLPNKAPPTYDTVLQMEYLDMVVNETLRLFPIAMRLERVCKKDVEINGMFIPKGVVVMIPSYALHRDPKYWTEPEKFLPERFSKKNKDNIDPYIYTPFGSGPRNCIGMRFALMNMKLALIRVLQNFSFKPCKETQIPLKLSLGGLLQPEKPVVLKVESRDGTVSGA

## Cc1nc2ccc(NN=C(C#N)C#N)cc2s1 [Comparative compound 1, N-(2-methylbenzo[d]thiazol-6-yl)carbonohydrazonoyl dicyanide, reference compound]
[1]
  Rat microsomes (% remaining): 1.2 % remaining
[2]
  Mouse microsomes (% remaining): 1.2 % remaining
Tau-BiFC cells
  Cell viability (% @10µM): 100%
TDP-43 BiFC cells
  Cell viability (%) (@ 3 uM): 79.0%
[3]
  Human microsomes (% remaining): 37.0 % remaining
Tau
  IC50: 500 nM
TDP-43 protein
  inhibition at 3 µM: 72.9%

## Cc1ccc(-c2nc3ccc(NN=C(C#N)C#N)cc3s2)cn1 [Comparative compound 6, N-(2-(6-methylpyridin-3-yl)benzo[d]thiazol-6-yl) carbonohydrazonoyl dicyanide, reference compound]
[1]
  Rat microsomes (% remaining): 83.9 % remaining
[2]
  Mouse microsomes (% remaining): >100 % remaining
CYP3A4
  CYP3A4 (% activity): 81.7 % activity
CYP2D6
  CYP2D6 (% activity): 91.8 % activity
TDP-43 BiFC cells
  Cell viability (%) (@ 3 uM): 60.8%
[3]
  Human microsomes (% remaining): 84.7 % remaining
CYP1A2
  CYP1A2 (% activity): 80.2 % activity
CYP2C19
  CYP2C19 (% activity): 81.2 % activity
CYP2C9
  CYP2C9 (% activity): 32.0 % activity
TDP-43 protein
  inhibition at 3 µM: 69.5%

## N#CC(C#N)=NNc1ccc2nc(N3CCOCC3)[nH]c2c1 [Compound 7, (2-morpholino-1H-benzo[d]imidazol-6-yl)carbonohydrazonoyl dicyanide]
Tau-BiFC cells
  Cell viability (% @10µM): 100%
CYP3A4
  CYP3A4 (% activity): 83.1 % activity
CYP2D6
  CYP2D6 (% activity): > 100 % activity
Tau
  IC50: 64 nM
CYP1A2
  CYP1A2 (% activity): 57.6 % activity
CYP2C19
  CYP2C19 (% activity): 95.1 % activity
CYP2C9
  CYP2C9 (% activity): 67.8 % activity
